Experimental data taken from US20170143674A1, “Use of Glutaryl Histamine for the Treatment of Respiratory Tract Diseases” (LTD "VALENTA-INTELLEKT", priority 2011, published 2017).
Marks after values point to notes of the source that are not given here.

What was measured:
[1] = test system: acute respiratory distress syndrome (ARDS); test: ARDS model, multiple-dose intravenous LPS (LD30); type: in vivo, rat
Method: (§1) Since an intravenous administration of lipopolysaccharide (LPS) to animals is one of the most acceptable models for studying the pathogenesis, pathomorphological changes and consequences of acute respiratory distress syndrome, this model was used in this example. Tested medicament glutaryl histamine was administered for 9 days after the first administration of LPS, i.e. glutaryl histamine was administered for 12 days in total (3 days before the induction of ARDS and 9 days during and after the induction). The exception was dexamethasone since, according to the literature data and the information leaflet, long-time administration of steroidal anti-inflammatory agents can cause severe side effects. For this reason, dexamethasone was administered according to the following schedule: 49, 24 and 1 hour before the induction of ARDS in a dose of 5 mg/kg, for 3 days after the first injection of LPS in the same dose; the medicament was withdrawn by a gradual dose reduction for 3 days. Thus, dexamethasone was administered 9 times.
At this step, animals were administered LPS at more lower dose, but for longer time period. They were received 2 mg/kg on days 1 and 2, and 3 and 4 mg/kg on days 3 and 4, respectively. The maximum mortality rate, similarly to the single-dose administration of LD70, was on the first day. On eighth day, mortality reached 33%.
The second step of the experiment comprises the evaluation of both the mortality rate of the animals with calculation of the protective index and narrower indexes used for determination of a specific protection provided by glutaryl histamine in ARDS. As was disclosed above, a lower dose of LPS (LD30) was used at the second stage. In addition, LPS was administered every day for 4 days. This method of administration was aimed at achieving the maximum disorder exactly in the lung for subsequent evaluation of possible protective action of glutaryl histamine.

[2] = test system: acute rhinosinusitis induced by intranasal administration of formalin; type: in vivo, rat
Method: Activity of glutaryl histamine was studied in an experimental model of acute rhinosinusitis (ARS).
Administration of 20 μl of 7.5% formalin to the rat nasal passages leads to the development of a clinical picture similar to the symptoms of acute rhinosinusitis in a human.
The tested medicament and reference medicaments were administered for 7 days after administration of 7.5% formalin. Normal saline solution was used as placebo. The animals were subjected to euthanasia on day 8 after induction of experimental acute rhinosinusitis by method of air embolism. During necropsy, nasal passages of all animals were sampled. The obtained material was placed into 10% neutral-buffered formalin for further histological analysis.
The mucous and submucous membranes of both nasal passages (respiratory and olfactory regions) of the experimental animals were subjected to a morphological analysis of the specific activity of glutaryl histamine.
After the clinical phase of the experiment, the material derived from the animals was subjected to the standard treatment to prepare histological paraffin sections with a thickness of 3 to 5 μm. The sections were stained with hematoxylin and eosin for a microscopic study. Comparison and histological analysis of changes were performed versus the group of intact rats.
The main pathological processes inherent in experimental acute rhinosinusitis, such as vascular congestion in mucous membrane, hyperplasia and necrosis of the epithelium, the number of caliciform cells within 1 mm of the mucous membrane in the nasal septum, were evaluated by a semi-quantitative method to evaluate the degree of pathophysiological changes in histological, histochemical and morphological studies.
The microscopic analysis of exudative disorder developed in rats with acute rhinitis was aimed at measuring the number of caliciform cells comprising acidic mucus (Table 3).

[3] = test system: LPS-induced tonsillitis; test: LPS-induced tonsillitis model (E. coli LPS into cervical lymph node); type: in vivo
Method: This example is aimed at evaluating the activity of glutaryl histamine on experimental model of tonsillitis. LPS-induced tonsillitis is one of the most adequate models for the study of the pathogenesis, pathomorphological changes and action of pharmacological medicaments on the course of this disease.
Tonsillitis was induced under anesthesia by administration of a solution of E. coli lipopolysaccharide (LPS) (Sigma) in normal physiological solution in a dose of 20 μg/kg, by 10 μl to the right upper lymph node (Inn. Cervicales superficiales). After administration, the lymph nodes were put under superficial neck muscles and then the skin was stitched. The wound was treated with streptocide. The animal was placed into a post-operation cage.
The tested medicament was administered once daily in a given dose strictly at the stated time for three days before the induction of tonsillitis and 10 days after. Normal saline solution was used as placebo.
Immediately after euthanasia, the animals were subjected to necropsy, the affected and intact lymph nodes were removed and weighed.
The lymph nodes derived from the half of animals from each group were being frozen after removal in a refrigerating chamber at −25° C. for 72 hours. Then the lymph nodes were lyophilized.
In a half of animals from each group (7), the affected lymph nodes were subjected to histological analysis. After euthanasia, intact and affected lymph nodes were removed from each animal. […] Sections with a thickness of 4 to 6 μm were prepared from the paraffin blocks, stained with hematoxylin and eosin to reveal typical pathological processes and study required parameters using light-optical microscope Leica DM LS (magnification 200× and 400×).
Weights of intact and affected lymph nodes were compared and the nodes also were lyophilized to evaluate an effect of the medicaments on the swelling degree and adequacy of the model of tonsillitis.
The protein-synthetic function of the liver and a systemic effect of the medicaments on organism were evaluated in total protein (TP) analysis.

[4] = test system: acute respiratory distress syndrome (ARDS); test: ARDS model, single intravenous LPS 7.5 mg/kg; type: in vivo, rat; conditions: Dexamethasone 5 mg/kg
Method: as §1
The mortality rate among the animals administered LPS in an intravenous dose of 7.5 mg/kg was 70% for 8 days. The most of them (60%) died on the first day, in particular, from 4 to 12-16 hours after the injection of LPS. The mortality rate among the animals administered glutaryl histamine was different from the rate in animals treated with dexamethasone; however, most of them also died on the first day, about in the same time period (Table 11).

C[C@@H]1C[C@H]2[C@@H]3CCC4=CC(=O)C=C[C@]4(C)[C@@]3(F)[C@@H](O)C[C@]2(C)[C@@]1(O)C(=O)CO [Dexamethasone, dexamethasone, reference compound]
IP (%) (protective index) ([1]; Dexamethasone 5 mg/kg): 62.5% | M (%) (mortality rate) ([1]; Dexamethasone 5 mg/kg): 12.5% | S (%) (survival rate) ([1]; Dexamethasone 5 mg/kg): 87.5% | Died ([1]; Dexamethasone 5 mg/kg, total number 24): 3 | mortality rate for the first three days ([1]; dexamethasone (5 mg/kg), first three days): 0% | Mucopurulent catarrh (number of rats) ([2]; Dexamethasone 5 mg/kg, n = 10): 0 | Mucous catarrh (number of rats) ([2]; Dexamethasone 5 mg/kg, n = 10): 1 | Without changes (number of rats, mucous membrane in the nasal passages, macroscopic) ([2]; Dexamethasone 5 mg/kg, n = 10): 9 | The number of caliciform cells within 1 mm of the mucosal membrane of the nasal septum ([2]; Dexamethasone (5 mg/kg), M ± m): 15.6 ± 0.6 | Mortality rate (%) ([3]; Dexamethasone 5 mg/kg): 64% | The number of died animals/initial number of animals in a group ([3]; Dexamethasone 5 mg/kg): 9/14 | Area of germinal centers of lymphoid follicles in affected lymph nodes ([3]; Dexamethasone (5 mg/kg), M ± m): 0.016 ± 0.004* ** mm^2 | Weight difference between affected and intact lymph nodes ([3]; Dexamethasone (5 mg/kg), M ± m): 15.6 ± 1.8 mg | IP (%) (protective index) [4]: 28.6% | S (%) (survival rate) [4]: 50% | Me (%) (mortality rate) ([4]; 8 days): 50% | Died ([4]; total number 10): 5
